In data set [1] the test system is U87MG glioma cells. Description: Cell growth assay (CellTiter-Glo), U87MG glioma cells. Type of data set: cell-based. The settings on record: single agent; 10 μM and 100 μM; 6 days (FIG. 10). As to the method:
(§1) Two glioma cell lines were used (U87MG and T98G). The growth inhibitory effects of chemical compounds were evaluated using CellTiter-Glo® Luminescent Cell Viability Assay (Promega G7570). The CellTiter-Glo® Reagent lyses cells and generates a luminescent signal proportional to the amount of ATP present. In this assay, 4,000 viable cells were plated in 100 μL of growth medium in 96-well plates (Corning). Following an overnight incubation, drugs were added in varying concentrations and incubated for 6 days. 100 μL of CellTiter-Glo® Reagent was added to each well. Plates were incubated with mixing at room temperature for 30 minutes. Luminescence of each well was measured using an automated plate reader.
For orientation: Cellular ATP, detected with luciferase, serves as a proxy for viable cell number.

Data set [2] deals with T98G glioma cells. Description: Cell growth assay (CellTiter-Glo), T98G glioma cells. Type of data set: cell-based. The note with it: for inhibitory effects on cell growth: single agent, 10 μM and 100 μM, 6 days (FIG. 11). How it is done:
as §1

Data set [3] has as its system rabbit reticulocytes. The data set is described as follows: In vitro translation assay (luciferase mRNA). Type of data set: biochemical. The note with it: luciferase activity; 15 minutes at 37° C. As to the method: In vitro translation assays were performed in rabbit reticulocytes (Promega) according to manufacturer's instruction, in the presence or absence of drug at final concentrations shown. Luciferase mRNA provided in the kit was used at a final concentration of 1 μg/μl. The reaction samples were incubated for 15 minutes at 37° C. and quenched by dilution with water. Luciferase activity was measured using a plate reader Multi-Mode Microplate Reader (Synergy 2 by BioTek) immediately after luciferase substrate addition.

For data set [4], the system named is HS294T melanoma cells. The data set is described as follows: Clonogenic assay (sulfhorhodamine B), HS294T. Type of data set: cell-based, human. How it is done: HS294T melanoma cells were plated at a low concentration to allow for the formation of single colonies. These cells were then treated with meta Br-N-29-H RA-VII alone, PLX4032 alone and a combination of the two and then processed using the quantitative sulfhorhodamine B assay.

Data set [5] deals with mice. The note with it: cited from earlier work.
In data set [6] the test system is A375 (higher grade) melanoma cell line. Description: Cell growth assay IC50, A375 melanoma cell line. Type of data set: cell-based, human. How it is done: as §1, with “Seven cell lines, lung cancer cell line H157, HNC” for “Two glioma”, “lines Det562 and FaDu, and melanoma cell lines WM35, A375, 1205Lu and HS294T” for “lines”, “studied.” for “used (U87MG and T98G).”, “˜4,000” for “4,000”, “reader. Survival was plotted against drug concentration to compute IC50.” for “reader.”
(§2) The ability of bouvardin and meta Br-N-29-H RA-VII to inhibit the growth of Melanoma cells in culture was studied. […] Both compounds show greater efficacy in higher grade, metastatic melanoma cell lines than in a lower grade melanoma line.

Data set [7] concerns WM35 (lower grade, radial phase) melanoma cell line. Description: Cell growth assay IC50, WM35 melanoma cell line. Type of data set: cell-based, human. As to the method: as §1, with “Seven cell lines, lung cancer cell line H157, HNC” for “Two glioma”, “lines Det562 and FaDu, and melanoma cell lines WM35, A375, 1205Lu and HS294T” for “lines”, “studied.” for “used (U87MG and T98G).”, “˜4,000” for “4,000”, “reader. Survival was plotted against drug concentration to compute IC50.” for “reader.”
as §2

Data set [8] deals with Melanoma cells. The data set is described as follows: Growth inhibition of Melanoma cells in culture, alone and combined. Type of data set: cell-based, human.
Source text: as §2
Synergy is seen in cell lines with a wide range of sensitivity to PLX4032, i.e. both PLX4032-sensitive and PLX4032-resistant lines.

Data set [9] deals with A375 melanoma cells. The data set is described as follows: Exposure-time cell viability assay, A375. Type of data set: cell-based, human. The settings on record: IC70 concentration; viability read after 5 days. As to the method: (§3) The cell growth assays used to measure IC50 and synergy involve leaving the drug on the cells for 5 days. However, this length of time may or may not be necessary to see efficacy. To address this, two Bouvardin derivatives (meta Br-N-29-H RA-VII and mera Cl-N-29-H RA-VII) were exposed to different melanoma and head and neck cells for various amounts of time. Cells were plated at 4,000 cells per well in 96 well plates and allowed to adhere for 24 hrs before adding meta Br-N-29-H RA-VII or meta Cl-N-29-H RA-VII at an IC70 concentration for each cell line. The drug was removed after various times (12 hr, 1 day, 2 days, 3 days, 4 days) by replacement with fresh media. After 5 days, cell viability was determined using CellTiter-Glo® Luminescent Cell Viability Assay (Promega G7570), which measures ATP levels. Bouvardin or BVD at 12 hr exposure was used as a control. […] While the maximal effect of meta Br-N-29-H RA-VII was not reached at the same time for all of the lines, the drug is affecting each cell line to some degree by 24 hrs.

In data set [10] the test system is HS294T melanoma cells. Description: Exposure-time cell viability assay, HS294T. Type of data set: cell-based, human. The settings on record: IC70 concentration; viability read after 5 days. As to the method:
as §3

Data set [11] relates to 1205Lu melanoma cells. Description: Exposure-time cell viability assay, 1205Lu. Type of data set: cell-based, human. The note with it: IC70 concentration; viability read after 5 days. As to the method:
as §3

The test system of data set [12] is Det562 Head and Neck cancer cells. Description: Exposure-time cell viability assay, Det562. Type of data set: cell-based, human. The settings on record: IC70 concentration; viability read after 5 days. As to the method:
as §3

The subject of data set [13] is FaDu Head and Neck cancer cells. The data set is described as follows: Exposure-time cell viability assay, FaDu. Type of data set: cell-based, human. The settings on record: IC70 concentration; viability read after 5 days. As to the method: as §3
Data set [14] has as its system HS294T metastatic melanoma cells. Description: Combination with PLX4032, combination index, HS294T. Type of data set: cell-based, human. The note with it: combination with PLX4032, wide range of drug concentrations. From the text:
The dotted line indicates fraction survival expected if meta Br-N-29-H RA-VII and PLX4032 are act in an additive manner. The observed effect of the combination is […], indicating synergy. This represents a subset of a larger data set that includes the result of a wide range of drug doses. The complete dataset is in FIGS. 16 and 17.
CI of less than 1 indicates synergy, which is seen for a wide range of drug concentrations. […] This illustrates that at doses that show synergy, significant fractions of cells are killed or inhibited from growing.

Data set [15] deals with HS294T melanoma cells. The data set is described as follows: Combination with ionizing radiation, combination index, HS294T. The note with it: range of drug doses and radiation. Type of data set: cell-based, human. The text has this: CI values are shown for a range of drug doses and radiation. CI<1 indicates synergy.
The nature of data set [16]: Combination Index from cell growth assays with targeted agents (FIG. 22). Type of data set: cell-based. The note with it: over a range of FA (fraction affected). How it is done: The combinations of meta Br-N-29-H RA-VII and three commercially available targeted agents (PLX4032 BRAF inhibitor, TAK-333 MEK inhibitor and PF-0491502 P13K/TOR dual inhibitor) were tested at various drug doses. Combination Index values were computed from cell growth assays as previously described (Gladstone et al., Disease Models and Mechanisms, 2012, PMID: 22344740). The tables show average CI values for the combination of meta Br-N-29-H RA-VII and each targeted agent. FA=‘fraction affected’ or fraction of cells killed, reflecting the drug doses used. The CI values that indicate three modes on drug-drug interaction are indicated in the legend and differentially shaded in the table. CI˜1 denote additive action (un-shaded). CI>1 denote antagonistic action (darker shade).

Data set [17] concerns human primary fibroblasts. Description: Bouvardin on primary versus oncogene-transformed human fibroblasts. Type of data set: cell-based. The note with it: fibroblasts transformed with more and more oncogenes (FIG. 16).
Data set [18] concerns human primary fibroblasts. The settings on record: published report (Dolma et al., 2003); cited from earlier work.
Where [19] appears, read: combination of meta Br-N-29-H RA-VII and PLX4032.

The values that follow come from US10259846B2, “Bouvardin derivatives and therapeutic uses thereof” (The Regents of the University of Colorado, a body corporate, priority 2012, dated 2019).

Read-outs that look alike come from different tables or passages of the source.

`COc1ccc(C[C@H](NC(=O)[C@H](Cc2ccc(O)cc2)N(C)C(=O)OC(C)(C)C)C(=O)OCc2ccccc2)cc1Br` [Compound 1-7]: the “inhibitory effects on cell growth” value in data set [1] and in data set [2] was “potent inhibitory effects” each time. Further, the “inhibition of protein translation in in vitro translation assay” value (shortened to “inhibition of protein translation”) in [3] is given as “do not appear to inhibit protein translation”.

Consider `COc1ccc(C[C@H](NC(=O)[C@H](Cc2ccc(O)cc2)N(C)C(=O)OC(C)(C)C)C(=O)OCc2ccccc2)cc1B1OC(C)(C)C(C)(C)O1` [Compound 1-8], for which the “inhibitory effects on cell growth” value in data set [1] and in data set [2] was “potent inhibitory effects” throughout. For the same compound, the “inhibition of protein translation” value in data set [3] is given as “do not appear to inhibit protein translation”.

With `COc1ccc(C[C@H](NC(=O)[C@H](Cc2ccc(O)cc2)N(C)C(=O)OC(C)(C)C)C(=O)OCc2ccccc2)cc1B(O)O` [Compound 1-9], the “inhibitory effects on cell growth” value in data set [1] and in data set [2] was “potent inhibitory effects” in each case. In addition, the “inhibition of protein translation” value in [3] is recorded as “do not appear to inhibit protein translation”.

As for `CCCS(=O)(=O)Nc1ccc(F)c(C(=O)c2c[nH]c3ncc(-c4ccc(Cl)cc4)cc23)c1F` [PLX4032, Vemurafenib, reference compound], the “survival compared to untreated cells” value in data set [4] (500 nM, alone) is listed as “around 60%”.

`COc1cccc2c1C(=O)c1c(O)c3c(c(O)c1C2=O)C[C@@](O)(C(=O)CO)C[C@@H]3O[C@H]1C[C@H](N)[C@H](O)[C@H](C)O1` [doxorubicin]: the LD50 in [5] is recorded as 12.5 mg/kg.

`COc1ccc(C[C@H]2C(=O)N[C@@H](C)C(=O)N(C)[C@H]3Cc4ccc(cc4)Oc4cc(c(Br)cc4OC)C[C@H](NC3=O)C(=O)N[C@H](C)C(=O)N[C@@H](C)C(=O)N2C)cc1` [meta Br-N-29-H RA-VII]: in data set [2] (T98G glioma cells (FIG. 12)), the “response in cell growth assay” value is “dose-dependent response”. The “inhibition of protein translation” value in data set [3] is “dose-dependent response”. For the same compound, the IC50 in data set [6] (Homo sapiens, A-375) was 100 nM; in data set [7] (Homo sapiens), 1170 nM. Moreover, in [8] (Melanoma cells), the “times less effective (greater IC50) than bouvardin” value is 5 to 10 times. For the same compound, in data set [8] (combination, PLX4032-sensitive and PLX4032-resistant lines), the “synergy with BRAF inhibitor Vemurafenib (PLX4032)” value is “synergizes best and over a wide range of meta Br-N-29-H RA-VII doses”. The “exposure time to maximal response (same as 5 day)” value in data set [9] is 2 to 3 days; in data set [10] it was 3 to 4 days; in data set [11], 4 days. For the same compound, the “response at 12 hr exposure” value is recorded as “partial response” in [9]; “partial response” in data set [10]; “partial response” in [11]; “partial response” in data set [12]; “no response” in data set [13]. Also, the “exposure time to maximal response” value in [12] and in [13] was 4 days throughout. Also, the “interaction with PLX4032 (combination index; CI of less than 1 indicates synergy)” value in data set [14] is “synergize”. In addition, the “interaction with ionizing radiation (combination index; CI<1 indicates synergy)” value in [15] was “shows synergy”. Further, the “survival compared to untreated cells” value in data set [4] (20 nM, alone) is “greater than 90%”; in [4] (setting [19]), “less than 20%”. The “predicted survival if the two treatments were additive” value in [4] (setting [19]) is given as 50%. The “interaction (average Combination Index) with PF-0491502 P13K/TOR dual inhibitor” value in data set [16] was “displays synergy”. In addition, the “interaction (average Combination Index) with PLX4032 BRAF inhibitor” value in data set [16] is “displays synergy”. In data set [16], the “interaction (average Combination Index) with TAK-333 MEK inhibitor” value is “displays synergy”.

Regarding bouvardin, the IC50 in data set [6] came out at 12 nM; in [7] it was 124 nM. In addition, in data set [17], the “IC, for bouvardin” value is “decreases as human primary fibroblasts are transformed with more and more oncogenes”. Also, in data set [5], the 50% lethal dose (LD50) was 12.4 mg/kg. The “IC50 in primary human cells versus transformed cells” value in data set [18] is on record as “higher IC50 (lower efficacy) in primary human cells than in transformed cells”.

As a reminder, the LD50 is the dose at which mortality reaches 50%. For orientation: IC50 means the concentration that gives 50% inhibition.
